# From article PMC10529583, “A new polymodal gating model of the proton-activated chloride channel” (PLOS Biology, 2023)
# How the values were obtained:
# Assay type in all cases: cell-based
# [1] = molecular target: T1, human PAC channel (wt-PAC) (Homo sapiens, UniProt Q9H813, A321C); assay: whole-cell patch clamp, activation of current
# T1 construct: gene PACC1; full-length, homotrimer; pCMV-blank, transiently expressed in PACC1-knockout HEK293T cells; library screen on endogenous PAC of HEK293T cells
# T1 sequence (Q9H813 whole entry A321C): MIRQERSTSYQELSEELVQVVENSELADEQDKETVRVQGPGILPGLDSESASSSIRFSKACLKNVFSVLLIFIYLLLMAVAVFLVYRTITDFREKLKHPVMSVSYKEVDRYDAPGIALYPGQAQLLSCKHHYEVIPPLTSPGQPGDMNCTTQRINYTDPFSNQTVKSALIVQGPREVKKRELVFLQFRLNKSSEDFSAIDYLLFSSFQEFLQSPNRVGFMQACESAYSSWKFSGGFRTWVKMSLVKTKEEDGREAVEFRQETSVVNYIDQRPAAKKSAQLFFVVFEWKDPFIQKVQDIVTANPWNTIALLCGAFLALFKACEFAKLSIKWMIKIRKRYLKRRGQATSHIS
# [2] = molecular target: T2, human PAC channel (wt-PAC) (Homo sapiens, UniProt Q9H813); assay: whole-cell patch clamp, activation of proton-evoked current
# T2 construct: gene PACC1; full-length, homotrimer; pCMV-blank, transiently expressed in PACC1-knockout HEK293T cells; library screen on endogenous PAC of HEK293T cells
# T2 sequence (Q9H813 whole entry): as the sequence (Q9H813 whole entry A321C) above, with C321A counted along it
# [3] = molecular target: T3, human PAC channel (wt-PAC) (Homo sapiens, UniProt Q9H813, P303A/T306A/L309A); assay: whole-cell patch clamp, activation of current; details: pH 5.34; activation (site 1)
# T3 construct: gene PACC1; full-length, homotrimer; pCMV-blank, transiently expressed in PACC1-knockout HEK293T cells; library screen on endogenous PAC of HEK293T cells
# T3 sequence (Q9H813 whole entry P303A/T306A/L309A): as the sequence (Q9H813 whole entry A321C) above, with P303A, T306A, L309A, C321A counted along it
# [4] = molecular target: T4, human PAC channel (wt-PAC) (Homo sapiens, UniProt Q9H813, R237A); assay: whole-cell patch clamp, effect of […] compound on current; details: root pH of the mutant; inhibited, not activated
# T4 construct: gene PACC1; full-length, homotrimer; pCMV-blank, transiently expressed in PACC1-knockout HEK293T cells; library screen on endogenous PAC of HEK293T cells
# T4 sequence (Q9H813 whole entry R237A): as the sequence (Q9H813 whole entry A321C) above, with R237A, C321A counted along it
# [5] = molecular target: T5, human PAC channel (wt-PAC) (Homo sapiens, UniProt Q9H813, F196A/R237A); assay: whole-cell patch clamp, inhibition of current
# T5 construct: gene PACC1; full-length, homotrimer; pCMV-blank, transiently expressed in PACC1-knockout HEK293T cells; library screen on endogenous PAC of HEK293T cells
# T5 sequence (Q9H813 whole entry F196A/R237A): as the sequence (Q9H813 whole entry A321C) above, with F196A, R237A, C321A counted along it
# [6] = molecular target: T6, human PAC channel (wt-PAC) (Homo sapiens, UniProt Q9H813, F196A); assay: whole-cell patch clamp, inhibition of current
# T6 construct: gene PACC1; full-length, homotrimer; pCMV-blank, transiently expressed in PACC1-knockout HEK293T cells; library screen on endogenous PAC of HEK293T cells
# T6 sequence (Q9H813 whole entry F196A): as the sequence (Q9H813 whole entry A321C) above, with F196A, C321A counted along it
# [7] = molecular target: T7, human PAC channel (wt-PAC) (Homo sapiens, UniProt Q9H813, A81C/L309A/P303A/T306A); assay: whole-cell patch clamp, inhibition of current
# T7 construct: gene PACC1; full-length, homotrimer; pCMV-blank, transiently expressed in PACC1-knockout HEK293T cells; library screen on endogenous PAC of HEK293T cells
# T7 sequence (Q9H813 whole entry A81C/P303A/T306A/L309A): as the sequence (Q9H813 whole entry A321C) above, with A81C, P303A, T306A, L309A, C321A counted along it
# [8] = molecular target: T2, human PAC channel (wt-PAC); assay: whole-cell patch clamp, inhibition of proton-evoked current; details: pH 4.6, open-state pore site (site 2, second site), voltage ramp -70 to +80 mV
# [9] = molecular target: T8, human PAC channel (wt-PAC) (Homo sapiens, UniProt Q9H813, A81C); assay: whole-cell patch clamp, inhibition of current
# T8 construct: gene PACC1; full-length, homotrimer; pCMV-blank, transiently expressed in PACC1-knockout HEK293T cells; library screen on endogenous PAC of HEK293T cells
# T8 sequence (Q9H813 whole entry A81C): as the sequence (Q9H813 whole entry A321C) above, with A81C, C321A counted along it
# [10] = molecular target: T1, human PAC channel (wt-PAC); assay: whole-cell patch clamp, inhibition of basal current
smiles,measurement,setting,value
"Cc1occc1C(=O)Nc1ccc(I)cc1C(=O)O [C77304, 5–iodo–2–(2–methylfuran–3–carboxamido)benzoicacid]",EC50,[1],1 ± 0.4 µM
same,EC50,[2],0.6 ± 0.2 µM
same,"whole-cell patch clamp, activation of current",[3],the P303A/T306A/L309A mutations did not affect the activation effect of C77304 on the channel
same,"whole-cell patch clamp, effect of 5 μM compound on current",[4],"currents mediated by the PAC/R237A mutant, but not any others, were significantly inhibited"
same,IC50,[5],5.7 ± 0.9 µM
same,IC50,[6],3 ± 0.5 µM
same,IC50,[7],~200 µM
same,IC50,[8],8.3 ± 1.0 µM
same,IC50,[9],18.3 ± 3 µM
same,IC50,[10],11.8 ± 1.9 µM
